Tested on: Spermacoce verticillate
Experiment: Example 1 trial: herbicidal combinations on Spermacoce verticillate resistant to Group 4 and Group 9 herbicides
Format: in vivo
Conditions: for % weed control at 14 DA-B: 14 days after sequential application B, B applied 15 days after A, scale 0 (no damage) to 100 (complete destruction) vs untreated control, rates per Table 1; for control of S. verticillate weeds (in words): Example 1, sequential application used after glyphosate+triclopyr at 15 DA-A
Method: Trials were carried out for evaluating the effect of herbicidal combinations on target weeds of Spermacoce verticillate resistant to herbicides belonging to Group 4 and Group 9. The evaluation for the damage on undesired weeds caused by the present compositions was carried out using a scale from 0 to 100%, compared to the untreated control plants. Here, 0 means no damage and 100 means complete destruction of weed. In the following experiments, the herbicidal activity for the herbicidal combinations was assessed till 28 days after treatment (application A).
In this trial, time T was application time, application A was performed first and at 15 days, application B was performed out in treatments with sequential application. The tested herbicides were sourced from the formulations readily available.

| SMILES | % weed control at 14 DA-B [%] | control of S. verticillate weeds (in words) |
| --- | --- | --- |
| O=C(O)CNCP(=O)(O)O [Glyphosate (A), N-(phosphonomethyl)glycine] | 22 | do not efficiently control |
| O=C(O)COc1nc(Cl)c(Cl)cc1Cl [Triclopyr (A), Triclopyr] | 42.5 | do not efficiently control |
